Reference: the NIST ThermoML archive (doi:10.1021/je900311v)

Columns and labels:
[1] = 298.15 K; 101.33 kPa; Liquid
[2] = excess molar enthalpy (molar enthalpy of mixing); xn = mol fraction of the nth substance listed; details: 298.15 K, 101 kPa, Liquid, Calvet calorimetry

CCCCCCC(C)=O [2-octanone]
Details | mass density [kg/m3]
[1] | 814.28

CCCCCCC(C)=O [2-octanone] + CCCCCCCCCCCC
[2]
Details | excess molar enthalpy [kcal/mol]
x1 = 0.035 | 0.0456
x1 = 0.0677 | 0.0821
x1 = 0.0982 | 0.111
x1 = 0.1267 | 0.136
x1 = 0.1564 | 0.159
x1 = 0.1841 | 0.177
x1 = 0.2101 | 0.193
x1 = 0.2345 | 0.205
x1 = 0.2613 | 0.217
x1 = 0.2862 | 0.226
x1 = 0.3096 | 0.234
x1 = 0.3314 | 0.24
x1 = 0.3519 | 0.245
x1 = 0.3712 | 0.248
x1 = 0.3931 | 0.252
x1 = 0.4135 | 0.254
x1 = 0.4325 | 0.255
x1 = 0.4499 | 0.255
x1 = 0.4504 | 0.256
x1 = 0.4596 | 0.256
x1 = 0.4698 | 0.256
x1 = 0.4804 | 0.256
x1 = 0.4915 | 0.256
x1 = 0.5031 | 0.255
x1 = 0.5138 | 0.255
x1 = 0.525 | 0.253
x1 = 0.5366 | 0.252
x1 = 0.5488 | 0.251
x1 = 0.5615 | 0.249
x1 = 0.5749 | 0.246
x1 = 0.5866 | 0.244
x1 = 0.5986 | 0.241
x1 = 0.6133 | 0.238
x1 = 0.6244 | 0.235
x1 = 0.6381 | 0.231
x1 = 0.6525 | 0.227
x1 = 0.6658 | 0.222
x1 = 0.6795 | 0.217
x1 = 0.6938 | 0.212
x1 = 0.7072 | 0.206
x1 = 0.721 | 0.2
x1 = 0.7355 | 0.193
x1 = 0.7505 | 0.186
x1 = 0.7661 | 0.177
x1 = 0.7808 | 0.17
x1 = 0.7961 | 0.161
x1 = 0.812 | 0.151
x1 = 0.8265 | 0.142
x1 = 0.8414 | 0.133
x1 = 0.857 | 0.122
x1 = 0.873 | 0.11
x1 = 0.8877 | 0.0994
x1 = 0.9032 | 0.0876
x1 = 0.9191 | 0.0745
x1 = 0.9356 | 0.0608
x1 = 0.9509 | 0.047
x1 = 0.9667 | 0.0326
x1 = 0.9831 | 0.0167
